From patent publication US20260231944A1, “ANTISEPTIC CONDITIONING FORMULATIONS” (THOMMES MEDICAL AG, priority 2023, published 2026) come the findings set out here.

A short description of data set [1]: precipitation test of PHMB and CHX in alkaline buffers (visual inspection/visible clouding). It is filed as physicochemical.
Data set [2] concerns Human periodontal ligament fibroblasts (HPDLF). Briefly: cell viability of human primary cells after antiseptics in T. buffer, AlamarBlue assay. It is filed as cell-based. As for the experimental part: Human periodontal ligament fibroblasts (HPDLF) were used in this study as test system, imitating closer the in vivo situation. The fibroblasts were purchased from ATCC and cultured in ScienCell FM medium, supplemented with 2% fetal bovine serum, 1% fibroblast growth factor and 1% penicillin-streptomycin (Sigma-Aldrich, Switzerland) in T75 flasks at 37° C. and 5% CO2.
To study the effect of antiseptic substances, at concentrations that are currently used in marketed products, the vitality of HPDLF cells was assessed. […] As a control, cells were incubated with T. buffer without antiseptic agent. Three replicate wells per concentration were tested. After 1 minute of incubation at 37°, the supernatant was removed and the wells were washed once with 600 μl of the fresh medium. Thereafter, cells were incubated with 600 µL of the fresh medium containing 0.015 mg/ml AlamarBlue dye, for 4 hours at 37° C. Finally, 100 μL of the medium were removed from each well and transferred to a new 96-well plate and the absorbance was measured using a BioTek microplate reader (test wavelength: 570 nm; reference wavelength: 630 nm).
After the incubation with the antiseptic agents, the metabolic activity was measured using an AlamarBlue assay (after 4 h).

Procedure for L929 murine fibroblasts: Mouse fibroblasts (L929 cell line) were used in this study as recommended cell line for cytotoxicity testing in accordance with EN ISO 10993-5.
The fibroblasts were purchased from ATCC and cultured in Dulbecco's Modified Eagle Medium-high glucose, supplemented with 10% fetal bovine serum and 1% penicillin-streptomycin (Sigma-Aldrich, Switzerland) in T75 flasks at 37° C. and 5% CO2. For the performance of the cytotoxicity experiments, L929 cells were seeded onto 96-well cell culture plates, 100 μ/well, at a density of 1×10^6 cells/mL to reach about 80% confluence after 24 hours.
After 60 minutes of incubation at 37°, the medium was removed and the wells were washed once with 100 μl of the fresh medium.
Thereafter, cells were incubated with 100 μL of the fresh medium containing 0.015 mg/ml AlamarBlue dye, for 2 hours at 37° C.
Finally, 100 μL of the media were removed from each well and transferred to a new 96-well plate and the absorbance was measured using a BioTek microplate reader (test wavelength: 570 nm; reference wavelength: 630 nm).
In order to test the cytocompatibility of alkaline buffers, a similar experiment was performed. However, the alkaline buffers were incubated for 10 minutes instead of 60 minutes. […]
After the incubation time, the metabolic activity, used as an indirect marker for cytotoxicity, was measured with an AlamarBlue assay. […]

For `[H]/N=C(\N/C(=N/[H])NCCCCCCNC(=N)NC(=N)Nc1ccc(Cl)cc1)Nc1ccc(Cl)cc1` [CHX, 1,6-bis(4-chloro-phenylbiguanido)hexane], the precipitation result in data set [1] (CHX 0.06% in 0.05 M NaOH/0.05 M glycine, pH 11.06) is recorded as “precipitation occurs”; in data set [1] (CHX 0.06% in 0.05 M NaOH/0.1 M glycine, pH 9.9), “no precipitation”. Further, the cell viability entry in data set [2] (CHX 0.06 and 0.12% in T. buffer, 1 minute) is reported as “Low cell viability”.
For the compound `C[S+](C)[O-]` [DMSO], the cell viability result in data set [2] (5% DMSO (negative control)) was “low cell viability”.
For `[Na+].[OH-]` [sodium hydroxide], the “metabolic activity (AlamarBlue)” value in the data set with L929 murine fibroblasts is “significant reduction in metabolic activity”.
